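Test compounds were applied to cells in 96-well plates for 48 hours at 5 doses. TGI: concentration producing complete growth inhibition.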
Columns and labels:
Experiment in all cases: NCI tumour cell line growth inhibition, 48 h
HCC-2998 colon = test system: HCC-2998 colon
NCI-H460 lung = test system: NCI-H460 lung
HOP-92 NSCLC = test system: HOP-92 NSCLC
UACC-62 melanoma = test system: UACC-62 melanoma
MCF7 breast = test system: MCF7 breast
SR leukemia = test system: SR leukemia
K-562 leukemia = test system: K-562 leukemia
MDA-MB-231 breast = test system: MDA-MB-231 breast
HT29 colon = test system: HT29 colon
T-47D breast = test system: T-47D breast
UO-31 renal = test system: UO-31 renal
ACHN renal = test system: ACHN renal
NCI-H522 lung = test system: NCI-H522 lung
A549 NSCLC = test system: A549 NSCLC
SK-OV-3 ovarian = test system: SK-OV-3 ovarian
M14 melanoma = test system: M14 melanoma
CAKI-1 renal = test system: CAKI-1 renal
IGROV1 ovarian = test system: IGROV1 ovarian
MDA-MB-435 = test system: MDA-MB-435
MDA-N = test system: MDA-N
SNB-75 CNS = test system: SNB-75 CNS
RXF 393 renal = test system: RXF 393 renal
HCT-116 colon = test system: HCT-116 colon
SF-295 CNS = test system: SF-295 CNS
COLO 205 colon = test system: COLO 205 colon
SNB-19 CNS = test system: SNB-19 CNS
A498 renal = test system: A498 renal
DU-145 prostate = test system: DU-145 prostate
SF-539 CNS = test system: SF-539 CNS
OVCAR-5 ovarian = test system: OVCAR-5 ovarian
BT-549 breast = test system: BT-549 breast
SK-MEL-5 melanoma = test system: SK-MEL-5 melanoma
U251 CNS = test system: U251 CNS
NCI-H226 lung = test system: NCI-H226 lung
SK-MEL-28 melanoma = test system: SK-MEL-28 melanoma
HOP-62 NSCLC = test system: HOP-62 NSCLC
NCI-H23 lung = test system: NCI-H23 lung
HS 578T breast = test system: HS 578T breast
PC-3 prostate = test system: PC-3 prostate
KM12 colon = test system: KM12 colon
OVCAR-8 ovarian = test system: OVCAR-8 ovarian
OVCAR-4 ovarian = test system: OVCAR-4 ovarian
EKVX NSCLC = test system: EKVX NSCLC
MOLT-4 leukemia = test system: MOLT-4 leukemia
HCT-15 colon = test system: HCT-15 colon
SN12C renal = test system: SN12C renal
CCRF-CEM leukemia = test system: CCRF-CEM leukemia
TK-10 renal = test system: TK-10 renal
SW-620 colon = test system: SW-620 colon
NCI/ADR-RES ovarian = test system: NCI/ADR-RES ovarian
786-0 renal = test system: 786-0 renal
UACC-257 melanoma = test system: UACC-257 melanoma
OVCAR-3 ovarian = test system: OVCAR-3 ovarian
SF-268 CNS = test system: SF-268 CNS
RPMI-8226 leukemia = test system: RPMI-8226 leukemia
LOX IMVI melanoma = test system: LOX IMVI melanoma
HL-60(TB) leukemia = test system: HL-60(TB) leukemia
SK-MEL-2 melanoma = test system: SK-MEL-2 melanoma

Measured: TGI

N#CCCN(CCC#N)c1ccc(C(N=Nc2ccc(Cl)cc2)=Nc2ccc(F)cc2)cc1
not listed: LOX IMVI melanoma | HL-60(TB) leukemia | SK-MEL-2 melanoma
> 100 µM: all other assays above

C=C1NC(=O)C(CC(C(=O)C(=O)Nc2c(C)cccc2C(C)(C)C)C(=O)c2ccc3ccccc3c2)C(=O)N1 (stereo not drawn)
not listed: NCI-H522 lung | IGROV1 ovarian | HOP-62 NSCLC | EKVX NSCLC | TK-10 renal
> 100 µM: all other assays above

Source: PubChem BioAssay (NCI)
